Like-named read-outs stand apart in the source and are kept apart here.

The nature of the data set: Skin permeation and skin accumulation in Franz diffusion cells. Type of data set: in vitro ADME, nude mice (CD1). How it is done: The permeation of pure OMC and Di(4-methoxycinnamoyl)jojobadiol (two —OH groups esterified) was measured by using dorsal skin of male, 7 weeks old, nude mice (CD1, Weizmann Institute, Israel).
The experiments were carried out for 24 hours at 37° C. in Franz diffusion cells. Samples of 200 μl were taken at 1, 2, 4, 6, 8 and 24 hours. 10 mg of each compound were applied on each skin (area—1.77 cm^2). The receiver compartment contained EtOH:H2O (1:1). At the end of the experiment the skin was cleaned and the skins were extracted with 10 ml EtOH. The amounts of the OMC and derivative Di(4-methoxycinnamoyl)jojobadiol were assayed by HPLC.

As to `CCCCC(CC)COC(=O)C=Cc1ccc(OC)cc1` (stereo not shown) [OMC, octylmethoxycinnamate, reference compound], the “penetration/permeation across the skin (in words)” value was “permeates to the skin”. Further, under “male, CD1 nude, mouse, 24 h”, the “amount penetrated as % of the dose applied on the skin” value came out at 8.76% and the “amount which penetrated into the skin at the end of permeation experiment” value is 876 ± 235 µg.
Take Di(4-methoxycinnamoyl)jojobadiol: for the setting “10 mg on 1.77 cm^2 skin, 24 hours, 37° C., skin extracted with 10 ml EtOH, FIG. 7”, the “amount accumulated in the skin at the end of experiment” value was found to be 900 ± 359 µg. In addition, the “penetration/permeation across the skin (in words)” value (24 hours in vitro permeation, lowest detectable concentration of the derivative by HPLC 0.8 μg/ml, FIG. 6) was “no penetration” and the “penetration/permeation across the skin (in words)” value (24 hours in vitro permeation, lowest detectable concentration of the derivative by HPLC 0.8 μg/ml, FIG. 6, listed as di(4-methoxy-cinnamoyl)jojobadiol) is on record as “does not”. In addition, the “skin accumulation, OMC compared with Di(4-methoxycinnamoyl)jojobadiol” value (end of 24 hours experiment, FIG. 7) is recorded as “about third of the amount of the OMC”.

For the origin of these results see US7736630B2, “Products for preventing penetration into the skin” (priority 2002, dated 2010).
